Holding throughout (type): in vivo
For experiment [1], the system named is Lolium perenne (LOLPE). As to the kind of experiment: Pre-emergence herbicidal activity, glasshouse pot test. As to conditions: Lolium perenne, 312 h, Rate 250 g/ha, evaluated after 13 days, read-out: Pre-emergence activity LOLPE (100=total damage to plant; 0=no damage to plant). In short, it runs like this: (§1)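 Herbicide damage scored 0–100 at 13 d. Pre-emergence: spray 1 d after sowing; post-emergence: spray after 8 d growth. Formulation acetone/water 50:50, 0.5% Tween 20, aqueous spray.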

Experiment [2] deals with Echinochloa crus-galli (ECHCG). The description is as above. To be noted: Echinochloa crus-galli, 312 h, Rate 250 g/ha, evaluated after 13 days, read-out: Pre-emergence activity ECHCG (100=total damage to plant; 0=no damage to plant). In short, it runs like this:
as §1

Experiment [3] relates to Avena fatua (AVEFA). Described as above. As to conditions: Avena fatua, 312 h, Rate 250 g/ha, evaluated after 13 days, read-out: Pre-emergence activity AVEFA (100=total damage to plant; 0=no damage to plant). In short, it runs like this: as §1
Experiment [4] deals with Alopecurus myosuroides (ALOMY). Described as above. To be noted: Alopecurus myosuroides, 312 h, Rate 250 g/ha, evaluated after 13 days, read-out: Pre-emergence activity ALOMY (100=total damage to plant; 0=no damage to plant). In short, it runs like this:
as §1

In experiment [5] the test system is Lolium perenne (LOLPE). Nature of the experiment: Post-emergence herbicidal activity, glasshouse pot test. As to conditions: Lolium perenne, 312 h, rate 250 g/ha, evaluated after 13 days, read-out: Post-emergence activity LOLPE (100=total damage to plant; 0=no damage to plant). The method, boiled down: as §1
In experiment [6] the test system is Echinochloa crus-galli (ECHCG). The description is as above. To be noted: Echinochloa crus-galli, 312 h, rate 250 g/ha, evaluated after 13 days, read-out: Post-emergence activity ECHCG (100=total damage to plant; 0=no damage to plant). The method, boiled down:
as §1

In experiment [7] the test system is Avena fatua (AVEFA). The description is as above. To be noted: Avena fatua, 312 h, rate 250 g/ha, evaluated after 13 days, read-out: Post-emergence activity AVEFA (100=total damage to plant; 0=no damage to plant). The method, boiled down:
as §1

Experiment [8] deals with Alopecurus myosuroides (ALOMY). Described as above. To be noted: Alopecurus myosuroides, 312 h, rate 250 g/ha, evaluated after 13 days, read-out: Post-emergence activity ALOMY (100=total damage to plant; 0=no damage to plant). In short, it runs like this: as §1

Experimental findings from US8865623B2, “Herbicidally active cyclic diones and derivatives thereof, processes for their preparation, compositions, and method of controlling weeds” (Syngenta Limited, priority 2009, dated 2014) are described below.

Turning to `CCc1ccc(Oc2ncc(C(F)(F)F)cc2Cl)cc1C1=C(O)[C@H]2CC[C@H](C2)C1=O` [Example A-335], the pest or weed control at 250 g/ha with Lolium perenne (LOLPE) [1] (pre-emergence spray) worked out at 100%; in experiment [2] (pre-emergence spray) it was 100%; with Avena fatua (AVEFA) [3] (pre-emergence spray), 90%; in experiment [4] (pre-emergence spray) it was 100%; in the experiment with Lolium perenne (LOLPE) [5] (glasshouse), 100%; in experiment [6] (glasshouse), 100%. Besides, the pest or weed control at 250 g/ha was determined as 90% with Avena fatua (AVEFA) [7] (glasshouse) and 100% in experiment [8] (glasshouse).

As for `CCc1ccc(Oc2ncc(Cl)cc2Cl)cc1C1=C(O)[C@H]2CC[C@H](C2)C1=O` [Example A-336], the pest or weed control at 250 g/ha in the experiment with Lolium perenne (LOLPE) [1] (pre-emergence spray) worked out at 100%; in experiment [2] (pre-emergence spray), 100%; in the experiment on Avena fatua (AVEFA) [3] (pre-emergence spray), 80%; in experiment [4] (pre-emergence spray), 90%; with Lolium perenne (LOLPE) [5] (glasshouse) it was 100%; in experiment [6] (glasshouse), 100%. Further, the pest or weed control at 250 g/ha in the experiment on Avena fatua (AVEFA) [7] (glasshouse) turned out to be 80%; in experiment [8] (glasshouse) it was 90%.

Regarding `CCc1ccc(Oc2nc3ccccc3s2)cc1C1=C(O)[C@H]2CC[C@H](C2)C1=O` [Example A-337], the pest or weed control at 250 g/ha with Lolium perenne (LOLPE) [1] (pre-emergence spray) amounted to 100%; in experiment [2] (pre-emergence spray), 100%; in the experiment on Avena fatua (AVEFA) [3] (pre-emergence spray), 70%; in experiment [4] (pre-emergence spray) it was 90%; in the experiment with Lolium perenne (LOLPE) [5] (glasshouse), 90%; in experiment [6] (glasshouse) it was 100%. Besides, the pest or weed control at 250 g/ha (in the experiment on Avena fatua (AVEFA) [7] (glasshouse); in experiment [8] (glasshouse)) was 90% throughout.

`CCc1ccc(Oc2nc3ccc(Cl)cc3s2)cc1C1=C(O)[C@H]2CC[C@H](C2)C1=O` [Example A-338]: the pest or weed control at 250 g/ha with Lolium perenne (LOLPE) [1] (pre-emergence spray) came to 100%; in experiment [2] (pre-emergence spray) it was 100%; in the experiment on Avena fatua (AVEFA) [3] (pre-emergence spray), 80%; in experiment [4] (pre-emergence spray) it was 90%; with Lolium perenne (LOLPE) [5] (glasshouse) it was 100%; in experiment [6] (glasshouse), 100%. Besides, the pest or weed control at 250 g/ha (with Avena fatua (AVEFA) [7] (glasshouse); in experiment [8] (glasshouse)) was 100% each time.

`CCc1ccc(Oc2nc3cc(Cl)ccc3s2)cc1C1=C(O)[C@H]2CC[C@H](C2)C1=O` [Example A-339]: the pest or weed control at 250 g/ha is 90% in the experiment with Lolium perenne (LOLPE) [1] (pre-emergence spray); 100% in experiment [2] (pre-emergence spray); 80% with Avena fatua (AVEFA) [3] (pre-emergence spray); 100% in experiment [4] (pre-emergence spray); 100% in the experiment on Lolium perenne (LOLPE) [5] (glasshouse); 100% in experiment [6] (glasshouse). Also, the pest or weed control at 250 g/ha in the experiment on Avena fatua (AVEFA) [7] (glasshouse) stood at 90%; in experiment [8] (glasshouse) it was 100%.

With `CCc1ccc(Oc2ccc(C(F)(F)F)c(C#N)c2)cc1C1=C(O)[C@H]2CC[C@H](C2)C1=O` [Example A-340], the pest or weed control at 250 g/ha in the experiment with Lolium perenne (LOLPE) [1] (pre-emergence spray) is 70%; in experiment [2] (pre-emergence spray) it was 100%; with Avena fatua (AVEFA) [3] (pre-emergence spray), 50%; in experiment [4] (pre-emergence spray), 80%; in the experiment with Lolium perenne (LOLPE) [5] (glasshouse), 70%; in experiment [6] (glasshouse) it was 100%. Further, the pest or weed control at 250 g/ha in the experiment with Avena fatua (AVEFA) [7] (glasshouse) was 80%; in experiment [8] (glasshouse), 60%.

As to `CCc1ccc(Oc2ncc(C(F)(F)F)cc2C(F)(F)F)cc1C1=C(O)[C@H]2CC[C@H](C2)C1=O` [Example A-341], the pest or weed control at 250 g/ha in the experiment with Lolium perenne (LOLPE) [1] (pre-emergence spray) stood at 100%; in experiment [2] (pre-emergence spray), 100%; with Avena fatua (AVEFA) [3] (pre-emergence spray), 90%; in experiment [4] (pre-emergence spray), 100%; with Lolium perenne (LOLPE) [5] (glasshouse), 100%; in experiment [6] (glasshouse), 100%. In addition, the pest or weed control at 250 g/ha worked out at 100% with Avena fatua (AVEFA) [7] (glasshouse) and 90% in experiment [8] (glasshouse).

With `CCc1ccc(Oc2nc3ccc([N+](=O)[O-])cc3s2)cc1C1=C(O)[C@H]2CC[C@H](C2)C1=O` [Example A-342], the pest or weed control at 250 g/ha is 100% with Lolium perenne (LOLPE) [1] (pre-emergence spray); 100% in experiment [2] (pre-emergence spray); 60% with Avena fatua (AVEFA) [3] (pre-emergence spray); 90% in experiment [4] (pre-emergence spray); 60% with Lolium perenne (LOLPE) [5] (glasshouse); 100% in experiment [6] (glasshouse). The pest or weed control at 250 g/ha is 70% in the experiment on Avena fatua (AVEFA) [7] (glasshouse) and 60% in experiment [8] (glasshouse).

`CCc1ccc(Oc2nc3ccc(OC)cc3s2)cc1C1=C(O)[C@H]2CC[C@H](C2)C1=O` [Example A-343]: the pest or weed control at 250 g/ha worked out at 100% in the experiment on Lolium perenne (LOLPE) [1] (pre-emergence spray); 100% in experiment [2] (pre-emergence spray); 50% in the experiment with Avena fatua (AVEFA) [3] (pre-emergence spray); 50% in experiment [4] (pre-emergence spray); 80% in the experiment on Lolium perenne (LOLPE) [5] (glasshouse); 100% in experiment [6] (glasshouse). Also, the pest or weed control at 250 g/ha is 80% in the experiment on Avena fatua (AVEFA) [7] (glasshouse) and 50% in experiment [8] (glasshouse).

On to `CCc1ccc(Oc2ccc(C(F)(F)F)cc2[N+](=O)[O-])cc1C1=C(O)[C@H]2CC[C@H](C2)C1=O` [Example A-344], for which the pest or weed control at 250 g/ha in the experiment on Lolium perenne (LOLPE) [1] (pre-emergence spray) turned out to be 80%; in experiment [2] (pre-emergence spray), 100%; in the experiment with Avena fatua (AVEFA) [3] (pre-emergence spray), 30%; in experiment [4] (pre-emergence spray), 40%; with Lolium perenne (LOLPE) [5] (glasshouse) it was 70%; in experiment [6] (glasshouse), 90%. Moreover, the pest or weed control at 250 g/ha with Avena fatua (AVEFA) [7] (glasshouse) came out at 90%; in experiment [8] (glasshouse), 60%.

For the molecule `CCc1ccc(Oc2nc3c(Cl)cc(Cl)cc3s2)cc1C1=C(O)[C@H]2CC[C@H](C2)C1=O` [Example A-345], the pest or weed control at 250 g/ha with Lolium perenne (LOLPE) [1] (pre-emergence spray) stood at 100%; in experiment [2] (pre-emergence spray), 100%; in the experiment on Avena fatua (AVEFA) [3] (pre-emergence spray) it was 60%; in experiment [4] (pre-emergence spray), 90%; in the experiment on Lolium perenne (LOLPE) [5] (glasshouse), 100%; in experiment [6] (glasshouse), 100%. The values for the pest or weed control at 250 g/ha (with Avena fatua (AVEFA) [7] (glasshouse); in experiment [8] (glasshouse)) were 100% and 80%, respectively.

In the case of `CCc1ccc(Oc2ncc(Cl)cc2C(F)(F)F)cc1C1=C(O)[C@H]2CC[C@H](C2)C1=O` [Example A-346], the pest or weed control at 250 g/ha in the experiment with Lolium perenne (LOLPE) [1] (pre-emergence) was 100%; in experiment [2] (pre-emergence), 100%; in the experiment on Avena fatua (AVEFA) [3] (pre-emergence) it was 90%; in experiment [4] (pre-emergence), 100%; with Lolium perenne (LOLPE) [5], 90%; in experiment [6], 100%. For the same molecule, the pest or weed control at 250 g/ha turned out to be 90% with Avena fatua (AVEFA) [7] and 70% in experiment [8].

For the molecule `CC1(C)OC(C)(C)C(O)=C(c2cc(Oc3ccc(Cl)c(F)c3)ccc2C2CC2)C1=O` [Example A-347], the pest or weed control at 250 g/ha is 100% in the experiment on Lolium perenne (LOLPE) [1] (pre-emergence); 100% in experiment [2] (pre-emergence); 10% with Avena fatua (AVEFA) [3] (pre-emergence); 70% in experiment [4] (pre-emergence); 100% in the experiment with Lolium perenne (LOLPE) [5]; 100% in experiment [6]. For the same molecule, the pest or weed control at 250 g/ha was 50% in the experiment with Avena fatua (AVEFA) [7] and 90% in experiment [8].

`CC1(C)OC(C)(C)C(O)=C(c2cc(Oc3ccc(Cl)cc3F)ccc2C2CC2)C1=O` [Example A-348]: the pest or weed control at 250 g/ha is 100% in the experiment on Lolium perenne (LOLPE) [1] (pre-emergence); 100% in experiment [2] (pre-emergence); 10% with Avena fatua (AVEFA) [3] (pre-emergence); 60% in experiment [4] (pre-emergence); 90% with Lolium perenne (LOLPE) [5]; 100% in experiment [6]. In addition, the pest or weed control at 250 g/ha with Avena fatua (AVEFA) [7] came to 60%; in experiment [8] it was 100%.
